Patent publication US20260217688A1, “INHIBITORS OF JAK2” (Llydaw Therapeutics, Inc., priority 2022, published 2026)

Columns and labels:
JAK2 JH2 = molecular target: T1, JAK2 JH2 (Homo sapiens, UniProt O60674); assay: JAK2 JH2 TR-FRET Assay; assay type: binding; conditions: JAK2 JH2 1 nM, Tracer ZE84-0003 10 nM
T1 construct: Enzyme: JAK2 JH2, His-Avi-Tag, Biotin-Labeled (BPS Bioscience, Cat #79074) 1 nM; His; purchased BPS Bioscience 79074
Description: Assay Buffer 1×: • 20 mM HEPES pH 7.2-7.4; • 10 mM MgCl2; • 0.015% Brij-35; • 2 mM DTT; • 0.05 mg/ml BSA.
Final assay concentrations: • DMSO: 0.25%; • Streptavidin Tb-cryptate (Cisbio, Cat #610SATLB) 0.2 nM; • Enzyme: JAK2 JH2, His-Avi-Tag, Biotin-Labeled (BPS Bioscience, Cat #79074) 1 nM; • Probe: Tracer ZE84-0003 (ChemRar) 10 nM.
Materials: • Reaction plate: ProxiPlate-384 Plus White Plate (PerkinElmer); • Dilution plate: Diamond Well Plate (Axygen, Cat #P-384-120 SQ-C-S); • Compounds plate: Diamond Well Plate (Axygen, Cat #P-384-120 SQ-C-S).
Assay protocol: • 1. Prepare 400× solutions of compounds in DMSO into Compounds plate; • 2. Prepare Dilution plate: add 39 μL of 1× Assay buffer per well of Dilution plate; • 3. Prepare 2×Tb-cryptate mix in 1× Assay buffer. Add 10 μL of 2×Tb-cryptate mix to K-(Tb-cryptate and Probe without Enzyme) wells and blank (Tb-cryptate without Probe and Enzyme) wells; • 4. Add JAK2 JH2 into the rest of 2×Tb-cryptate mix to make 2×JAK2 JH2+Tb-cryptate mix. Add 10 μL per well into Reaction plate; • 5. Centrifuge plate at 200 g for 1 min; • 6. Dilute 1 μL of 400× compounds in 39 μL 1× Assay buffer in Dilution plate; • 7. Add 2 μL of 10× compounds from Dilution plate to Reaction plate with 10 μL of JAK2 JH2+Tb-cryptate mix; • 8. Centrifuge plate at 200 g for 1 min; • 9. Pre-incubate Reaction plate with compounds 15 min; • 10. Prepare 2.5× Tracer mix; • 11. Add 8 μL of 2.5× Tracer mix into appropriate wells of Reaction plate; • 12. Centrifuge plate at 800 g for 3 min; • 13. Incubate at rt for 15 min; • 14. Measure Fluorescence using Microplate Reader (Ex: TR, Em1/Em2: 482/520). The results of this assay are shown in the Table B. The values of EC50 shown as a letters A-D, where: A≤0.01 μM; 0.01 μM<B≤0.05 μM; 0.05 μM<C≤0.1 μM; D>0.1.

Ba/F3 (JAK2 V617F) cells = assay: Proliferation inhibition assay (CellTiter-Glo), Ba/F3 JAK2 V617F; assay type: cell-based; conditions: Mus musculus, BaF3; without IL3, 72 h; read-out: Ba/F3 JAK2 V617F, CC50 3 days
Description: (§1) Ba/F3 (JAK2 wt) (ABM, T3076) cells and Ba/F3 (JAK2 V617F) (WuXi AppTec) cells were grown in RPMI-1640 (Gibco, cat. number 21870) supplemented with 10% FBS (Hyclone Laboratories Inc, Cat #SV30160.03), 1× Antibiotic-antimycotic (Gibco, Cat #15240-062), 2× Sodium pyruvate (Paneco, cat #F023), 2× Essential amino acids (Paneco, cat #F115/100), 1× Non-Essential amino acids (Paneco, cat #F116) at 37° C. in 5% CO2 atmosphere.
(§2) For the proliferation inhibition assay Ba/F3 (JAK2 wt) and Ba/F3 (JAK2 V617F) cells were seeded into a CellBIND® 384-well Flat Clear Bottom Black Polystyrene Microplates (Corning, USA, Cat #3770) at a density of 4000 cells per well in complete culture medium with or without 10 ng/ml rmIL-3 (RD systems, USA, Cat #403-ML-025) using Biomek FX/NX (384) liquid handler, 45 μl of cell suspension in complete culture medium per well. 500× compound's stocks in DMSO (Sigma Cat #D2650) were prepared in compounds plate (Diamond Well Plate, Axigen, Cat #P-384-120 SQ-C-S) applying Biomek 2000. 1 μl of 500× compounds stock was added to 49 μl of complete culture medium into Dilution plate (Diamond Well Plate, Axigen, Cat #P-384-120 SQ-C-S), mixed and then 5 μl of 10× compounds solution was transferred to cells using Biomek FX/NX (384) liquid handler. The centrifugation at 100 g for 1 min at Eppendorf 5810 followed. Final DMSO concentration in assay was 0.2%. All treatments were performed in technical and biological duplicates. Treated cells were incubated for 72 h at 37° C. with 5% CO2.
(§3) After 3 days of incubation, CellTiter-Glo Luminescent Cell Viability Assay (Promega) was performed. 10 μl of CellTiter-Glo (Promega, CAT #G7572) was added to the cells using Biomek FX/NX (384) liquid handler. The assay plate was centrifuged at 100 g for 1 min and luminescence signal was measured using Microplate Reader (CLARIOStar).

[1] = Proliferation inhibition assay (CellTiter-Glo), Ba/F3 JAK2 wt; assay type: cell-based; conditions: mouse, Ba/F3 (JAK2 wt) cells, with 10 ng/ml rmIL-3, 72 h; read-out: Ba/F3 JAK2 wt + IL3, CC50 3 days
Description: as §1, §2, §3

T1 sequence (O60674 545-809 limits assumed): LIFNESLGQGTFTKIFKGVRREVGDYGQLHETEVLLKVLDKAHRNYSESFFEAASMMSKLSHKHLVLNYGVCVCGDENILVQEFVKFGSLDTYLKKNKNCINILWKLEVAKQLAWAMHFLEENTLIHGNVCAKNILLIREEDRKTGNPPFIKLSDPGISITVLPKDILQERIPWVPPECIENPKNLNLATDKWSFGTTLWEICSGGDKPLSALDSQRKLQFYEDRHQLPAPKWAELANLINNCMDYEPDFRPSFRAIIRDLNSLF

**Q.** For `COc1c(Nc2nc(Nc3cnn(CCC4CCCCN4C)c3)ncc2C(N)=O)cccc1-c1ncn(C)n1` (stereo not drawn) [Compound 27, 4-[2-methoxy-3-(1-methyl-1,2,4-triazol-3-yl)anilino]-2-[[1-[2-(1-methyl-2-piperidyl)ethyl]pyrazol-4-yl]amino]pyrimidine-5-carboxamide], which EC50 (JAK2 JH2) is on record?
**A.** > 100 nM

**Q.** Which results are given for `COc1c(Nc2nc(Nc3cnn(C)c3)ncc2C(N)=O)cccc1-c1ccncc1` [Compound 37, 4-[2-methoxy-3-(4-pyridyl)anilino]-2-[(1-methylpyrazol-4-yl)amino]pyrimidine-5-carboxamide]?
**A.** CC50 (Ba/F3 (JAK2 V617F) cells): 5000 to 10000 nM; EC50 (JAK2 JH2): 10 to 50 nM; CC50 at 72 h [1]: 5000 to 10000 nM

**Q.** What does the source list for `COc1c(Nc2nc(Nc3cnn(CC(F)(F)F)c3)ncc2C(N)=O)cccc1-c1nc2ccccc2o1` [Compound 57, 4-[3-(1,3-benzoxazol-2-yl)-2-methoxy-anilino]-2-[[1-(2,2,2-trifluoroethyl)pyrazol-4-yl]amino]pyrimidine-5-carboxamide]?
**A.** CC50 (Ba/F3 (JAK2 V617F) cells): > 10000 nM; EC50 (JAK2 JH2): > 100 nM; CC50 at 72 h [1]: > 10000 nM

**Q.** For `COc1c(Nc2nc(Nc3cnn(C4CCCCC4)c3)ncc2C(N)=O)cccc1-c1ccccn1` [Compound 39, 2-[(1-cyclohexylpyrazol-4-yl)amino]-4-[2-methoxy-3-(2-pyridyl)anilino]pyrimidine-5-carboxamide], which CC50 (Ba/F3 (JAK2 V617F) cells) is on record?
**A.** ≤ 500 nM

**Q.** What about the EC50 (JAK2 JH2) of the same compound?
**A.** 50 to 100 nM

**Q.** What about the CC50 at 72 h [1] of the same compound?
**A.** 5000 to 10000 nM

**Q.** With `COc1c(Nc2nc(Nc3cnn(CCN(C)C)c3)ncc2C(N)=O)cccc1-c1ncn(C)n1` [Compound 5, 2-((1-(2-(dimethylamino)ethyl)-1H-pyrazol-4-yl)amino)-4-((2-methoxy-3-(1-methyl-1H-1,2,4-triazol-3-yl)phenyl)amino)pyrimidine-5-carboxamide] as the compound, how does the EC50 (JAK2 JH2) read?
**A.** 10 to 50 nM

**Q.** With `COc1c(Nc2nc(Nc3cnn(C4CCOCC4)c3)ncc2C(N)=O)cccc1-c1nc2ccccc2o1` [Compound 44, 4-[3-(1,3-benzoxazol-2-yl)-2-methoxy-anilino]-2-[(1-tetrahydropyran-4-ylpyrazol-4-yl)amino]pyrimidine-5-carboxamide] as the compound, how does the CC50 (Ba/F3 (JAK2 V617F) cells) read?
**A.** ≤ 500 nM

**Q.** And the EC50 (JAK2 JH2)?
**A.** 10 to 50 nM

**Q.** What about the CC50 at 72 h [1] of the same compound?
**A.** 1000 to 5000 nM

**Q.** Which CC50 (Ba/F3 (JAK2 V617F) cells) does the source give for `COc1c(Nc2nc(Nc3cnn(C4CCN(C(C)C)CC4)c3)ncc2C(N)=O)cccc1-c1nc2ccccc2o1` [Compound 33, 4-[3-(1,3-benzoxazol-2-yl)-2-methoxy-anilino]-2-[[1-(1-isopropyl-4-piperidyl)pyrazol-4-yl]amino]pyrimidine-5-carboxamide] here?
**A.** ≤ 500 nM

**Q.** What about the EC50 (JAK2 JH2) of the same compound?
**A.** 10 to 50 nM

**Q.** And the CC50 at 72 h [1]?
**A.** 1000 to 5000 nM

**Q.** With `COc1c(Nc2nc(Nc3cnn(CC(C)C)c3)ncc2C(N)=O)cccc1-c1nc2ccccc2o1` [Compound 56, 4-[3-(1,3-benzoxazol-2-yl)-2-methoxy-anilino]-2-[(1-isobutylpyrazol-4-yl)amino]pyrimidine-5-carboxamide] as the compound, how does the CC50 (Ba/F3 (JAK2 V617F) cells) read?
**A.** 500 to 1000 nM

**Q.** And the EC50 (JAK2 JH2)?
**A.** > 100 nM

**Q.** What about the CC50 at 72 h [1] of the same compound?
**A.** 5000 to 10000 nM

**Q.** Which results are given for `COCCCn1cc(Nc2ncc(C(N)=O)c(Nc3cccc(-c4nc5ccccc5o4)c3OC)n2)cn1` [Compound 52, 4-[3-(1,3-benzoxazol-2-yl)-2-methoxy-anilino]-2-[[1-(3-methoxypropyl)pyrazol-4-yl]amino]pyrimidine-5-carboxamide]?
**A.** CC50 (Ba/F3 (JAK2 V617F) cells): ≤ 500 nM; EC50 (JAK2 JH2): 10 to 50 nM; CC50 at 72 h [1]: 1000 to 5000 nM

**Q.** What does the source list for `COc1c(Nc2nc(Nc3cnn(C4CCOCC4)c3)ncc2C(N)=O)cccc1-c1ccccn1` [Compound 40, 4-[2-methoxy-3-(2-pyridyl)anilino]-2-[(1-tetrahydropyran-4-ylpyrazol-4-yl)amino]pyrimidine-5-carboxamide]?
**A.** CC50 (Ba/F3 (JAK2 V617F) cells): ≤ 500 nM; EC50 (JAK2 JH2): 10 to 50 nM; CC50 at 72 h [1]: 5000 to 10000 nM

**Q.** Which CC50 (Ba/F3 (JAK2 V617F) cells) does the source give for `COCCn1cc(Nc2ncc(C(N)=O)c(Nc3cccc(-c4ncn(C)n4)c3OC)n2)cn1` [Compound 51] here?
**A.** 1000 to 5000 nM

**Q.** What about the EC50 (JAK2 JH2) of the same compound?
**A.** 10 to 50 nM

**Q.** And the CC50 at 72 h [1]?
**A.** > 10000 nM

**Q.** Which CC50 (Ba/F3 (JAK2 V617F) cells) does the source give for `COc1c(Nc2nc(Nc3cnn(C4CCN(C)CC4)c3)ncc2C(N)=O)cccc1-c1ccccn1` [Compound 47] here?
**A.** 1000 to 5000 nM

**Q.** What about the EC50 (JAK2 JH2) of the same compound?
**A.** > 100 nM

**Q.** What about the CC50 at 72 h [1] of the same compound?
**A.** 5000 to 10000 nM

**Q.** What does the source list for `COc1c(Nc2nc(Nc3cnn(C)c3)ncc2C(N)=O)cccc1-c1cccnc1` [Compound 36, 4-[2-methoxy-3-(3-pyridyl)anilino]-2-[(1-methylpyrazol-4-yl)amino]pyrimidine-5-carboxamide]?
**A.** CC50 (Ba/F3 (JAK2 V617F) cells): > 10000 nM; EC50 (JAK2 JH2): 10 to 50 nM; CC50 at 72 h [1]: > 10000 nM

**Q.** For `COc1c(Nc2nc(Nc3c(C)nn(C(C)C)c3C)ncc2C(N)=O)cccc1-c1ncn(C)n1` [Compound 20, 2-[(1-isopropyl-3,5-dimethyl-pyrazol-4-yl)amino]-4-[2-methoxy-3-(1-methyl-1,2,4-triazol-3-yl)anilino]pyrimidine-5-carboxamide], which EC50 (JAK2 JH2) is on record?
**A.** > 100 nM

**Q.** Which CC50 (Ba/F3 (JAK2 V617F) cells) does the source give for `COc1c(Nc2nc(Nc3cnn(CC(F)(F)F)c3)ncc2C(N)=O)cccc1-c1ncn(C)n1` [Compound 59] here?
**A.** 1000 to 5000 nM

**Q.** And the CC50 at 72 h [1]?
**A.** 5000 to 10000 nM

**Q.** With `COc1c(Nc2nc(Nc3cnn(CC(C)C)c3)ncc2C(N)=O)cccc1-c1ncn(C)n1` [Compound 58, 2-[(1-isobutylpyrazol-4-yl)amino]-4-[2-methoxy-3-(1-methyl-1,2,4-triazol-3-yl)anilino]pyrimidine-5-carboxamide] as the compound, how does the CC50 (Ba/F3 (JAK2 V617F) cells) read?
**A.** 500 to 1000 nM

**Q.** And the CC50 at 72 h [1]?
**A.** 1000 to 5000 nM

**Q.** For `CCCCCCCCn1cc(Nc2ncc(C(N)=O)c(Nc3cccc(-c4ncn(C)n4)c3OC)n2)cn1` [Compound 25, 4-[2-methoxy-3-(1-methyl-1,2,4-triazol-3-yl)anilino]-2-[(1-octylpyrazol-4-yl)amino]pyrimidine-5-carboxamide], which EC50 (JAK2 JH2) is on record?
**A.** > 100 nM

**Q.** With `COc1c(Nc2nc(Nc3cn(C)nc3C)ncc2C(N)=O)cccc1-c1ncn(C)n1` [Compound 13, 2-[(1,3-dimethylpyrazol-4-yl)amino]-4-[2-methoxy-3-(1-methyl-1,2,4-triazol-3-yl)anilino]pyrimidine-5-carboxamide] as the compound, how does the EC50 (JAK2 JH2) read?
**A.** > 100 nM

**Q.** Which EC50 (JAK2 JH2) does the source give for `COc1c(Nc2nc(Nc3cnn(C(C)C)c3)ncc2C(=O)N(C)C)cccc1-c1ncn(C)n1` [Compound 31, 2-[(1-Isopropyl-1H-pyrazol-4-yl)amino]-4-{[2-methoxy-3-(1-methyl-1H-1,2,4-triazol-3-yl)phenyl]amino}-N,N-dimethylpyrimidine-5-carboxamide] here?
**A.** > 100 nM

**Q.** With `COc1c(Nc2nc(Nc3cnn(CC45CC6CC(CC(C6)C4)C5)c3)ncc2C(N)=O)cccc1-c1ncn(C)n1` [Compound 23, 2-[[1-(1-adamantylmethyl)pyrazol-4-yl]amino]-4-[2-methoxy-3-(1-methyl-1,2,4-triazol-3-yl)anilino]pyrimidine-5-carboxamide] as the compound, how does the EC50 (JAK2 JH2) read?
**A.** > 100 nM

**Q.** Which EC50 (JAK2 JH2) does the source give for `CCCn1nc(C)c(Nc2ncc(C(N)=O)c(Nc3cccc(-c4ncn(C)n4)c3OC)n2)c1C` [Compound 19, 2-[(3,5-dimethyl-1-propyl-pyrazol-4-yl)amino]-4-[2-methoxy-3-(1-methyl-1,2,4-triazol-3-yl)anilino]pyrimidine-5-carboxamide] here?
**A.** > 100 nM
